Assay results as given in patent publication US11007554B2, “Method, system and device for reducing microbial concentration and/or biofilm formation” (EMODs Technology, L.L.C., priority 2018, dated 2021).
Read-outs that look alike come from different tables or passages of the source.

System: microbes

SMILES: OO [hydrogen peroxide]
- microbes eliminated (3% hydrogen peroxide together with radiation of a wavelength between 300 and 600 nanometers): 99.999%
- microbes eliminated (3% solution of hydrogen peroxide alone): approximately 30%
